The values below come from PMC8426393, “Interactions of anti-COVID-19 drug candidates with hepatic transporters may cause liver toxicity and affect pharmacokinetics” (Scientific Reports, 2021).

“Also recorded” adds a separate entry of the source. Read-outs that look alike come from different tables or passages of the source.

For one data set, the target named is T1, MATE1/SLC47A1 (Homo sapiens, UniProt Q96FL8).
T1 construct: expressed in transfected cells; host or cells: MDCKII cells, lentiviral transduction
T1 sequence (Q96FL8 1-570): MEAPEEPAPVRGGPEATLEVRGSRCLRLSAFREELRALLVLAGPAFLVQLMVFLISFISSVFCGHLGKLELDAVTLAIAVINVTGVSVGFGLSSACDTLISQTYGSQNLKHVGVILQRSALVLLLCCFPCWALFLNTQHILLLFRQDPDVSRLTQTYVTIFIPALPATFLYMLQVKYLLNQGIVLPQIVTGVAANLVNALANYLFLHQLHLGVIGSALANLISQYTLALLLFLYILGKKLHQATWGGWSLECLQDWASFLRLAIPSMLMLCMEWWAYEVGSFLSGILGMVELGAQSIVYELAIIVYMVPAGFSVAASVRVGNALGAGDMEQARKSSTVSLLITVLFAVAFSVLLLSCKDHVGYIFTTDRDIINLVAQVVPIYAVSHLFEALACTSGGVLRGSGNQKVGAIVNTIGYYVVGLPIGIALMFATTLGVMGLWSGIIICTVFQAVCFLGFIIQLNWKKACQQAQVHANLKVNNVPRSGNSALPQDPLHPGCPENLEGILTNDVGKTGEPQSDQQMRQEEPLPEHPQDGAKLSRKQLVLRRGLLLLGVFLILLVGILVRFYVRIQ
As to the kind of experiment: MATE1-dependent metformin uptake in MATE1-overexpressing MDCKII cells. In kind it is cell-based. The note with it: for MATE1/SLC47A1 Type of effect: metformin 10 µM, 10 min, 37 °C, MDCKII cells.

In the next data set the target is T2, OATP1B1 (Homo sapiens, UniProt Q9Y6L6).
T2 construct: expressed in transfected cells; host or cells: A431 cells (ATCC)
T2 sequence (Q9Y6L6 1-691): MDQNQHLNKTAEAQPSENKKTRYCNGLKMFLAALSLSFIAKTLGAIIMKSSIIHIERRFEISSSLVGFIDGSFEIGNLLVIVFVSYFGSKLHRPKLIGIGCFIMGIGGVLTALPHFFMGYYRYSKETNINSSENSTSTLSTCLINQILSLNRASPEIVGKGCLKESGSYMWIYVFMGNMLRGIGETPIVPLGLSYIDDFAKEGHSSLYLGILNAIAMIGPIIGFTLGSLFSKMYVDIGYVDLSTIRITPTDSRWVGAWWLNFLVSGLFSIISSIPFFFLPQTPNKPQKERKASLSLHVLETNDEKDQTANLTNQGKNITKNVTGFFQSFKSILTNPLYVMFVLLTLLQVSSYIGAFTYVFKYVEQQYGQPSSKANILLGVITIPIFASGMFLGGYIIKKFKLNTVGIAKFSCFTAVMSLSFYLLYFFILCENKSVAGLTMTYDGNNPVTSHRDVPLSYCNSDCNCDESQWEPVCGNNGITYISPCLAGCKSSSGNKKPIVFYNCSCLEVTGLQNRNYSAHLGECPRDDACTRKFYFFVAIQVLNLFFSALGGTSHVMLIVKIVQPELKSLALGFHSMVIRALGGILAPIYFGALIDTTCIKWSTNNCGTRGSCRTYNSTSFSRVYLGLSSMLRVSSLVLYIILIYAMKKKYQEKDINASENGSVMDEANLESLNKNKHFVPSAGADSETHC
As to the kind of experiment: OATP1B1-dependent pyranine uptake in overexpressing A431 cells. The note with it: for OATP1B1 Type of effect: A431 cells. The class given is cell-based.

The target in another data set is T3, OATP1B3 (Homo sapiens, UniProt Q9NPD5).
T3 construct: expressed in transfected cells; host or cells: A431 cells (ATCC)
T3 sequence (Q9NPD5 1-702): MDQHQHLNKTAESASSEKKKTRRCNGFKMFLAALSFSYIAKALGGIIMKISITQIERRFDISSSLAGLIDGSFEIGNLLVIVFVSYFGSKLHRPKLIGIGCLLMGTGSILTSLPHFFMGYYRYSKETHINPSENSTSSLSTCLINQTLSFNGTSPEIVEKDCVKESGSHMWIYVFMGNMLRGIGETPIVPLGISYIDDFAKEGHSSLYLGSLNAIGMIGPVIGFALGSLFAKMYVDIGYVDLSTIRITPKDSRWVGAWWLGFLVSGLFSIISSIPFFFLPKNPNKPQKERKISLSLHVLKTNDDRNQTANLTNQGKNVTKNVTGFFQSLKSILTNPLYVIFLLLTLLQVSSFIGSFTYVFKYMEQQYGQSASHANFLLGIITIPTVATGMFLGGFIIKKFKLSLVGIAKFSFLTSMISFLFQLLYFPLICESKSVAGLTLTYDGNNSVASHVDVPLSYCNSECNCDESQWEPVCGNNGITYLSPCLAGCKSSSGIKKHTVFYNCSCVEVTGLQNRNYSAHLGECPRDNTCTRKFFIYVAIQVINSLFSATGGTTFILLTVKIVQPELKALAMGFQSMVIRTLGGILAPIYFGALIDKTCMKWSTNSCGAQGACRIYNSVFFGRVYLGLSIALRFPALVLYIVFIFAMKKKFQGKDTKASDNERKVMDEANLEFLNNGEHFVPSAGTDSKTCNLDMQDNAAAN
As to the kind of experiment: OATP1B3-dependent pyranine uptake in overexpressing A431 cells. In kind it is cell-based. Particulars: for OATP1B3 Type of effect: A431 cells.

A further data set concerns the target T4, OCT1/SLC22A1 (Homo sapiens, UniProt O15245).
T4 construct: expressed in transfected cells; host or cells: HEK-293 cells, lentiviral transduction
T4 sequence (O15245 1-554): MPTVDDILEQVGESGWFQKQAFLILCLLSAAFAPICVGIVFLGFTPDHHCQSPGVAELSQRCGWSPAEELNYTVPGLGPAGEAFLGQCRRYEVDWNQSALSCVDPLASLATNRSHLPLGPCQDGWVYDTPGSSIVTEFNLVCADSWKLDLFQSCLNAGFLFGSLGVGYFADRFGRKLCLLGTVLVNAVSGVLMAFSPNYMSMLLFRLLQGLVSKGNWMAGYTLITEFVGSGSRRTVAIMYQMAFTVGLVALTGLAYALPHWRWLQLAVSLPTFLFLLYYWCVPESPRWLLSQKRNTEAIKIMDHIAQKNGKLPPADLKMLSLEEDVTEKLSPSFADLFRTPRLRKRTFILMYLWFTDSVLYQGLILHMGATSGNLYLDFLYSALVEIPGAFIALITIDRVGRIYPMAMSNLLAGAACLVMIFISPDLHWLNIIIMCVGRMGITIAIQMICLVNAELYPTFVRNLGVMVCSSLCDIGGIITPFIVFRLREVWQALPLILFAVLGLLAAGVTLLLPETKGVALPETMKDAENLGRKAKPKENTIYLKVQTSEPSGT
As to the kind of experiment: OCT1-dependent metformin uptake in OCT1-overexpressing HEK-293 cells. In kind it is cell-based. Particulars: for OCT1/SLC22A1 Type of effect: metformin 10 µM, 5 min, 37 °C, HEK-293 cells.

For data set [1] the following is noted: cited from earlier work.

Take `NC(=O)c1nc(F)c[nH]c1=O` [FAV, favipiravir]: on MATE1/SLC47A1, the “MATE1/SLC47A1 Type of effect” value is on record as “practically no inhibition”. In addition, on OATP1B1 (pyranine 10 µM, 15 min, 37 °C), the “OATP1B1 Type of effect” value was “did not modify OATP functionality”. At OATP1B3 (pyranine 20 µM, 30 min, 37 °C), the “OATP1B3 Type of effect” value was “did not modify OATP functionality”. On OCT1/SLC22A1, the “OCT1/SLC22A1 Type of effect” value is recorded as “no significant inhibitory action”.

Take `CCC(C)C1OC2(CCC1C)CC1CC(CC=C(C)C(OC3CC(OC)C(OC4CC(OC)C(O)C(C)O4)C(C)O3)C(C)C=CC=C3COC4C(O)C(C)=CC(C(=O)O1)C34O)O2` (stereo not drawn) [IVE, ivermectin]: the “MATE1/SLC47A1 Type of effect” value at MATE1/SLC47A1 is given as “practically no inhibition; also recorded: No effect”. Also, the IC50 is not below 20000 nM at OATP1B1 (approximate IC50, pyranine 10 µM, 15 min, 37 °C) and 1400 nM against OATP1B3 (approximate IC50, pyranine 20 µM, 30 min, 37 °C). For the same compound, at OATP1B1 (pyranine 10 µM, 15 min, 37 °C), the “OATP1B1 Type of effect” value is recorded as “inh”. The “OATP1B3 R value” on OATP1B3 (DDI estimate, cut off 1.1, 165 µg/kg IVE dose, peak plasma 46 ng/ml) is 1.07. Besides, the “OATP1B3 Type of effect” value on OATP1B3 (pyranine 20 µM, 30 min, 37 °C) is “inh”. Also, the “OCT1/SLC22A1 Type of effect” value at OCT1/SLC22A1 was “no significant inhibitory action; also recorded: no effect”. Also, the peak plasma concentration in data set [1] (165 µg/kg IVE dose, ref FDA guideline for stromectol) is 46 ng/mL.

Regarding `Cc1cccc(C)c1OCC(=O)N[C@@H](Cc1ccccc1)[C@@H](O)C[C@H](Cc1ccccc1)NC(=O)[C@H](C(C)C)N1CCCNC1=O` [LOP, lopinavir], the IC50 on MATE1/SLC47A1 was 7700 nM; against OATP1B1, 1100 nM; against OATP1B3 it was 2600 nM; at OCT1/SLC22A1, more than 50000 nM. In addition, at MATE1/SLC47A1, the “MATE1/SLC47A1 Type of effect” value is “strong inhibitory action and inh”. The “OCT1/SLC22A1 Type of effect” value on OCT1/SLC22A1 is “less inhibitory and inh”. Moreover, the “peak plasma concentrations in vivo” value in data set [1] (Kaletra 400 mg lopinavir and 100 mg ritonavir in combination) was 11 to 20 µM.

`CCC(CC)COC(=O)[C@H](C)N[P@](=O)(OC[C@H]1O[C@@](C#N)(c2ccc3c(N)ncnn23)[C@H](O)[C@@H]1O)Oc1ccccc1` [REM, remdesivir]: the IC50 turned out to be 2300 nM against MATE1/SLC47A1, 2900 nM against OATP1B1, 4300 nM against OATP1B3 and 6100 nM against OCT1/SLC22A1. Also, on MATE1/SLC47A1, the “MATE1/SLC47A1 Type of effect” value was “strong inhibitory action and inh”. Besides, at OATP1B1 (pyranine 10 µM, 15 min, 37 °C), the “OATP1B1 Type of effect” value is “inh”. Besides, the “OATP1B3 Type of effect” value on OATP1B3 (pyranine 20 µM, 30 min, 37 °C) is on record as “inh”. The “OCT1/SLC22A1 Type of effect” value on OCT1/SLC22A1 is “strong inhibitory effect and inh”. The “concentration of strong inhibitory effect on OCT1” value on OCT1/SLC22A1 (metformin uptake) was “below 10 µM”. Also, the T1/2 in data set [1] (clearance from the human body) is 1.15 h. In addition, the Cmax in data set [1] (intravenous 100 mg, healthy adults, ref FDA label 214787Orig1s000) is 3.7 µM.

By IC50 is commonly meant the concentration that inhibits the measured activity by half. Broadly, the Cmax is the peak of the concentration-time curve.
